Data from EP0785936B1, “PHOTOCHROMIC NAPHTHOXAZINE COMPOUNDS” (PPG Industries Ohio, Inc., priority 1994, dated 1996).

Test: Photochromic response of imbibed diethylene glycol bis(allyl carbonate) polymer test squares on an optical bench
Type: physicochemical
Conditions: for Δ OD @ SATURATION: UV exposure continued for 20 minutes; for BLEACH RATE T 1/2: time for absorbance of activated form to reach one half the highest absorbance at 25.7 ± 0.5 °C after removal of activating light
Method: Comparative testing was conducted on the principle product of Example 3 and certain photochromic compounds described in U.S. Patents 4,342,668 and 4,637,698. These compounds were imbibed by thermal transfer into test squares of a polymeric matrix prepared from a diethylene glycol bis(allyl carbonate) composition by the following procedure: Each photochromic compound was dissolved in toluene to form a 4 weight percent solution of the compound. A piece of No. 4 Whatman filter paper was saturated with the toluene solution of the photochromic compound and allowed to air dry. The dried filter paper was placed on one side of the polymer test square, which measured 1/8 inch (0.3 centimeter) x 2 inch (5.1 centimeters) x 2 inch (5.1 centimeters). A piece of untreated filter paper was placed on the other side of the polymer test square and the resulting sandwich placed between two plates of flat aluminum metal plates. The entire assembly was then placed in a 155°C. oven for a time sufficient to thermally transfer the photochromic compound into the polymer test square. […] The imbibed test squares were washed with acetone after removal from the oven.
The imbibed polymer test squares were tested for photochromic response rates on an optical bench. The samples were illuminated by a 150 watt Xenon lamp fitted with a copper sulfate bath and a neutral density filter at an intensity of about one sun. A second beam of light provided by a filtered tungsten lamp arranged to pass through the sample area exposed by the UV source was used to monitor changes in transmission of the sample over different wavelength ranges in the visible region of the spectrum. The intensity of the monitoring beam after passing through the sample was measured by means of an IL-1500 radiometer equipped with a silicon detector head and matching filters.
The Δ OD/min., which represents the sensitivity of the photochromic compound's response to UV light, was measured using photopic filters on the silicon detector. The response of the filtered detector approximated the luminosity curve. The Δ OD was measured over the first five (5) seconds of UV exposure, then expressed on a per minute basis. The saturation optical density (OD) was taken under identical conditions as the Δ OD/min., except UV exposure was continued for 20 minutes. The lambda max reported in Table 2 is the wavelength in the ultraviolet range closest to the visible spectrum or in the threshold range, i.e., 390 to 410 nanometers, of the visible spectrum at which the maximum absorption and activation of the photochromic compound occurs in the polymer matrix test squares.
The bleach rate T 1/2(sec.) is the time interval in seconds for the absorbance of the activated form of the photochromic compounds in the test polymer to reach one half the highest absorbance at 25.7 ± 0.5 °C. after removal of the source of activating light.

1-propyl-3,3,4,5(or 3,3,5,6)-tetramethyl-9'-methoxycarbonyl-8'-acetoxy-spiro[indoline-2,3'-[3H]naphth[2,1-b]-[1,4]oxazine]
Δ OD @ SATURATION: 0.42 | BLEACH RATE T 1/2: 136 s

1-propyl-3,3,4,5(or 3,3,5,6)-tetramethyl-spiro[indoline-2,3'-[3H]naphth[2,1-b][1,4]oxazine]
Δ OD @ SATURATION: 0.11 | BLEACH RATE T 1/2: 47 s

CCCN1c2cc(C)c(C)cc2C(C)(C)C12C=Nc1c(ccc3ccc(OC)cc13)O2 (centres unmarked) [A, 1-propyl-3,3,5,6-tetramethyl-9'-methoxy-spiro[indoline-2,3'-[3H]naphth[2,1-b][1,4]oxazine]]
Δ OD @ SATURATION: 0.11 | BLEACH RATE T 1/2: 70 s

CCCN1c2cc(C)c(C)cc2C(C)(C)C12C=Nc1c(ccc3ncccc13)O2 (centres unmarked) [B, 1-propyl-3,3,5,6-tetramethyl-spiro[indoline-2,3'-[3H]pyrido-[3,2-f][1,4]benzoxazine]]
Δ OD @ SATURATION: 0.36 | BLEACH RATE T 1/2: 69 s
